How the values were obtained:
[1] = system: mouse colon cancer CT26 cells allograft tumor; assay: In vivo anti-tumor efficacy, BALB/c mouse subcutaneous allograft tumor model of CT26 cells (Example 9)
Experimental: Mouse colorectal cancer cell CT26 (from Nanjing Kebai Biotechnology Co., Ltd., article number: CBP60043) was maintained and passaged by InxMed (Nanjing) Co., Ltd. Cells were cultured in monolayer in vitro, and the culture conditions were RPMI-1640 medium with 10% fetal bovine serum and 37° C. 5% CO2 incubator. Trypsin-EDTA was used for routine digestion and passage two or three times a week. When the cells were in exponential growth period and the saturation reached 80%-90%, the cells were collected, counted and inoculated.
0.1 mL of cell suspension containing 3×10^5 cells was subcutaneously inoculated on the right back of each mouse. When the tumor volume reached about ˜57 mm^3 (13th day after cell inoculation), mice were randomly divided into groups according to the tumor volume and administered.
The assay index was to investigate whether the tumor growth is inhibited, delayed or cured. The diameter of tumor was measured with vernier caliper, 2˜3 times a week. The formula for calculating the tumor volume is: V=0.5×a×b^2, where a and b represent the long and short diameters of the tumor respectively.
The anti-tumor effect of the compound was evaluated by TGI (%), which reflected the tumor growth inhibition rate. According to the tumor volume on the first day after grouping, the tumor growth inhibition rate TGI (%) was calculated according to the following formula: […]
Statistical analysis was based on the tumor volume at the end of the assay and analyzed by Prism Graphpad software. The comparison between multiple groups was analyzed by Two-way ANOVA and Fisher's LSD test. P<0.05 is considered to have significant difference.

KPL tumor = assay: Anti-tumor efficacy in KPL model in C57BL/6 mice (Example 12); format: in vivo; settings: MRTX133 5 mg/kg IP BID, ANTI MOUSE PD-1 10 mg/kg IP BIW, IN10018 25 mg/kg PO QD
Experimental: 45 female C57BL/6 mice, 6-8 weeks old and 19 to 25 g in weight, were used in this study. The mice, marked by ear coding, were kept in Individual Ventilation Cages at constant temperature (20-26° C.) and humidity (40%-70%) with 3 animals in each cage. Animals had free access to irradiation sterilized dry granule food (Keao Xieli (Tianjin) Feed Co., Ltd) and sterile drinking water during the entire study period.
KPL cells were maintained in vitro in RPMI-1640 medium supplemented with 10% FBS and 1% P.S. at 37° C. in an atmosphere of 5% CO2 in air. The tumor cells were routinely sub-cultured three times weekly. KPL cells growing in an exponential growth phase were resuspended in PBS and adjusted concentration to 2×10^6/mL for tumor injection.
Each mouse was injected subcutaneously at the right flank with 0.1 mL KPL cell suspension (0.2×10^6) for tumor development. When tumor reach around 60 mm^3 on the 7th day after cell injection, mice were randomly grouped according to tumor volume, followed by drug administration. The day of grouping was defined as day 0.
The major endpoint is to see if the tumor growth can be delay or mice can be cured. Tumor sizes were measured three times weekly in two dimensions using a caliper (No. 105688, sylvac Dantsin), and the volume was expressed in mm^3 using the formula: V=0.5×a×b^2 (a, long diameters; b, short diameters). The tumor sizes were then used for the calculations of T/C (%) values. T/C (%) was calculated using the formula: T/C (%)=(Ti−T0)/(Vi−V0)×100%, Ti was the average tumor volume of a treatment group on a given day, T0 was the average tumor volume of the treatment group on the first day of treatment, Vi was the average tumor volume of the vehicle control group on the same day with Ti, and V0 was the average tumor volume of the vehicle group on the first day of treatment.
TGI was calculated for each group using the formula: TGI (%)=100%-T/C (%).
Efficacy study was euthanized on D28 after treatment according to requirement, tumors were collected and photographed, tumor weight were recorded meanwhile. Tumors were selected from each group and stored in 10% Formalin for the following research.
Summary statistics, including mean and the standard error of the mean (SEM), are provided for the tumor volume of each group at each time point. Statistical analysis of difference in tumor volume and tumor weight versus Vehicle group were conducted on the data obtained at each time point. T-test was performed to compare tumor volume among groups. A value of p<0.05 was considered to be statistically significant.

[2] = system: Mouse colon cancer CT26 cells; assay: Proliferation of CT26 cells, CCK8, MRTX1133 with or without IN10018 (Example 3); format: cell-based; settings: 72 hours, combination group: 5 μM IN10018 added to each well
Experimental: Mouse colon cancer CT26 cells (Insitute of Biochemistry and Cell Biology) were cultured with RPMI-1640 (Shanghai Basalmedia, classification number: L210KJ, batch number: F210916)+10% FBS (Gibco, classification number: 10099-141c, batch number: 2158737cp) and passaged twice. When the cells were in good condition, the culture solution was placed in a 96-well plate with 3000 cells/well. After the cells were spread for 24 hours, a culture medium containing MRTX1133 (SuperLan Chemical Co., Ltd., classification number: P2621928-55-8, batch number: 131005) was added. 10 drug action concentrations were set, wherein the first concentration was 30 μM, which was serially diluted 5 times, and the last concentration was a control with a drug concentration of 0. Each drug concentration was set in triplicate. At the same time, another group of cells was established with the same drug concentration as the above method. The difference was that 5 μM IN10018 was added to each well. The drugs were mixed and the mixture was cultured in a 5% CO2 incubator at 37° C. for 72 hours.
After 72 hours of drug action, the cells were observed under a microscope, and 10 μl of CCK8 detection reagent (Cellorlab, classification number: CX001M, batch number: 2571100) was added to each well. […] Then the plate was read with a microplate reader OD450 ([…]).

C#Cc1c(F)ccc2cc(O)cc(-c3ncc4c(N5CC6CCC(C5)N6)nc(OC[C@@]56CCCN5C[C@H](F)C6)nc4c3F)c12 [MRTX1133]
Tumor volume on Day 0 ([1]; Day 0, at grouping, mean ± SD): 57.4 ± 10.8 mm^3
TGI (%) ([1]; Day 14, MRTX1133 5 mg/kg IP QD, IN10018 25 mg/kg PO QD, TIGIT 3 mg/kg IP BIW): 63.2%
Tumor volume on Day 14 ([1]; Day 14 after group administration, MRTX1133 5 mg/kg IP QD, IN10018 25 mg/kg PO QD, TIGIT 3 mg/kg IP BIW, mean ± SD): 1067.8±302.1 mm^3
Tumor volume on Day 16 ([1]; Day 16 after group administration, MRTX1133 5 mg/kg IP QD, IN10018 25 mg/kg PO QD, TIGIT 3 mg/kg IP BIW, mean ± SD): 1672.1±548.1 mm^3
T/C (%) (KPL tumor; Day 3 after treatment): 15.72%
TGI (%) (KPL tumor; Day 3 after treatment): 84.28%
T/C (%) (KPL tumor; Day 7 after treatment): −50.80%
TGI (%) (KPL tumor; Day 7 after treatment): 150.80%
T/C (%) (KPL tumor; Day 10 after treatment): 2.69%
TGI (%) (KPL tumor; Day 10 after treatment): 97.31%
T/C (%) (KPL tumor; Day 14 after treatment): 30.94%
TGI (%) (KPL tumor; Day 14 after treatment): 69.06%
T/C (%) (KPL tumor; Day 17 after treatment): 56.17%
TGI (%) (KPL tumor; Day 17 after treatment): 43.83%
T/C (%) (KPL tumor; Day 21 after treatment): 58.22%
TGI (%) (KPL tumor; Day 21 after treatment): 41.78%
T/C (%) (KPL tumor; Day 24 after treatment): 61.87%
TGI (%) (KPL tumor; Day 24 after treatment): 38.13%
T/C (%) (KPL tumor; Day 28 after treatment): 71.43%
TGI (%) (KPL tumor; Day 28 after treatment): 28.57%
tumor volume (KPL tumor; day 28): 579.34 mm^3
IC50 [2]: 280 nM
